Measurements from article PMC10028264, “Synergistic antifungal interaction of N-(butylcarbamothioyl) benzamide and amphotericin B against Cryptococcus neoformans” (Frontiers in Microbiology, 2023).
In brackets after ≈: the same amount, converted by molar mass.

Target: T1, cryptococcal urease (Cryptococcus neoformans, UniProt O13465)
T1 construct: 100 μL of crude protein extract; endogenous in cells; host or cells: Cryptococcus neoformans ATCC 34872, crude lysate (glass-bead lysis, supernatant)
Test: Urease activity inhibition test (indophenol method, crude protein extract)
Type: biochemical
Conditions: C. neoformans ATCC 34872 crude protein extract; indophenol method
Procedure: Five colonies of C. neoformans were suspended in 100 μL SD broth and inoculated onto SD agar using a Drigalski spreader, and the culture was incubated at 37°C for 48 h. Afterward, all fungal growth was gently scraped and transferred to conical flasks containing 300 mL of SD broth and incubated with shaking (150 rpm) at 37°C for further 48 h. Cells were centrifuged (6,000 × g, 10 min) and washed three times with distilled water. The protein extraction was performed according to [Moller et al. (2016)] with modifications. Briefly, fungal cells were resuspended in 10 mL of chilled lysis buffer consisting of 100 μM Nα-tosyl-L-lysine chloromethyl ketone hydrochloride (TLCK), 1 mM EDTA, 10% glycerol and 0.15 M phosphate-buffered saline (PBS), pH 8.0. […] Then, the cell debris was removed by centrifugation (6,000 × g, 15 min, 4°C), and the protein content of the resulting supernatant was quantified using the […].
The inhibition of urease activity was evaluated by the indophenol method ([Weatherburn, 1967]). […] The reaction mixtures were incubated for further 10 min at 45°C, and the optical density (OD) was measured at 630 nm. Urease inhibition percentage (I%) was calculated according to the equation: I% = 100–(ODBTU–01/ODcontrol) × 100. […]

T1 sequence (O13465 whole entry): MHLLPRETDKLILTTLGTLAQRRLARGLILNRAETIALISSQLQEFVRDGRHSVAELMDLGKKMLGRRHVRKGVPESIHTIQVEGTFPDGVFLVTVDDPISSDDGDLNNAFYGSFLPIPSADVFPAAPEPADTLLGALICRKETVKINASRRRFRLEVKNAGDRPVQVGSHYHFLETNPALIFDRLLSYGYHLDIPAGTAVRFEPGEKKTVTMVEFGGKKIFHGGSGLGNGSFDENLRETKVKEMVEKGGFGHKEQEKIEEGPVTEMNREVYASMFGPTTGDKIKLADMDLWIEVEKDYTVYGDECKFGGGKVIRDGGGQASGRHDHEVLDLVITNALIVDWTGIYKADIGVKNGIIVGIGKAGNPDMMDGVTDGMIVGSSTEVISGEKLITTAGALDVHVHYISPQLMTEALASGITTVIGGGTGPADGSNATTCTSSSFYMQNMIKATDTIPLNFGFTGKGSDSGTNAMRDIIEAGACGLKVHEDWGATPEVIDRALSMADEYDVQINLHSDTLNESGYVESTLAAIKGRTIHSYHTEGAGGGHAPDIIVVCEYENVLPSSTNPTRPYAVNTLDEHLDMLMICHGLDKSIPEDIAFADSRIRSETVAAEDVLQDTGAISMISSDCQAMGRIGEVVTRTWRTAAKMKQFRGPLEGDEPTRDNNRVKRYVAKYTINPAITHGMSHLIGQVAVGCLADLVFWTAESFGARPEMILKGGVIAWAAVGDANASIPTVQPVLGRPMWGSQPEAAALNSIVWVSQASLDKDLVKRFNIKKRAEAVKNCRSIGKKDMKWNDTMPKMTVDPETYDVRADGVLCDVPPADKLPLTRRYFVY

With NC(N)=S [thiourea, Thiourea, reference compound] the IC50 urease activity was 38.6 µg/mL (≈ 507 µM).
